In assay [1] the test system is NMDA receptors. The experiment in a line: NMDA receptor stimulation of organotypic hippocampal cultures, CAM75 immunoblot. The class given is cell-based, rat.
Excerpt: The culture medium (Bahr, et al. “Stable maintenance of glutamate receptors and other synaptic components in long-term hippocampal slices,” Hippocampus 5, 425-439 (1995))(CM) was changed every other day. Slices were maintained in culture for 2-3 weeks and then subjected to a brief NMDA receptor stimulation paradigm (Thibault et al., “Long-lasting physiological effects of bath applied N-methyl-D-aspartate,” Brain Res. 476, 170-173 (1989) and Malenka, “Postsynaptic factors control the duration of synaptic enhancement in area CA 1 of the hippocampus,” Neuron 6, 53-60 (1991)). To activate NMDA receptors the slices were treated with 400 μM NMDA, 2 ; mM CaCl2 (4 mM total) and 1 mM glycine. Control slices were also subjected to this cocktail but were first pretreated for 10 minutes with either 100 μM AP5 (an NMDA antagonist), or with kynurenic acid (2 mM) and MK-801 (100 μM), in CM. After 30 seconds of incubation with the NMDA cocktail, the solutions were removed and CM plus 2 mM AP5 was added to all slices. Tissue was harvested and processed for immunoblotting as described (See Bahr et al., supra). […] Protein concentrations for the non-soluble pellets (i.e. all tissue left after the supernatant was extracted) were determined with a BSA standard curve. […] Quantification of immunobands was determined without knowledge of sample type by densitometry.
Assay [2] relates to CAM75 and Ng-CAM fragment in hippocampus. In words: In vivo detection of NMDA receptor mediated CAM cleavage after kainate seizures. The arrangement: species or system rat. On the procedure: Adult male rats were injected systemically with either: 10 mg/kg kainate (pH 7.4), 10 mg/kg kainate and 60 mg/kg ketamine (plus a second injection of 30 mg/kg ketamine one hour later), or saline. Behavioral responses were monitored (all animals in both sets injected with kainate reached seizure stages 4 or 5) and after two hours rats were anaesthetized, their hippocampi rapidly extracted and submerged in ice-cold buffer (10 mM Tris-base, 100 mM NaCl, 2 mM EDTA, and 2 mM EGTA; pH 7.4), homogenized on ice for 1 min in 5 mls of the same buffer, and then centrifuged for 3 min. at 1000 g (4° C.). The pellet was discarded and fractions of the resulting supernatants were immediately ultracentrifuged. Protein normalization and immunoblotting techniques were completed as described above. Quantification of CAM75 and the Ng-CAM fragment involved normalization of the immunoreactivity levels observed in saline injected rats to 100 percent (n=7-11; mean±S.E.M. for all groups).
Evidence for seizure induced extracellular cleavage at the consensus serine protease site was also obtained for a second adhesion molecule. Specifically, concentrations of an 80 kDa polypeptide detected by antibodies against Ng-CAM were increased by 603±140% (n=4, p=0.023) in ultrasupematant fractions from kainate injected rats.

The subject of assay [3] is endogenous protease(s) found in hippocampal ultrasupernatants. The experiment in a line: Cleavage of fluorescent AMC substrates by hippocampal ultrasupernatants. The class given is biochemical, rat. Conditions: 100 μM substrate. How it is done:
Hippocampi were rapidly extracted from adult male Sprague-Dawley rats and submerged in ice-cold artificial cerebrospinal fluid (aCSF) which consisted of (in mM): 124 NaCl, 3 KCl, 1.25 KH2PO4, 2.5 MgSO4, 3.4 CaCl2, 26 NaHCO3 and 10 glucose (pH 7.4), homogenized on ice for 1 min in 3 mls of the same buffer and then centrifuged for 5 min. at 1000 g (3° C.). The pellet was discarded and the resulting supernatant was ultracentrifuged at 200,000 g for 20 min. at 3° C. in a TLS-55 rotor (Beckman Instruments). The resulting ultrasupematant fraction was devoid of membrane-bound proteins and therefore represents a soluble protein fraction. This fraction was diluted to 50 μgs/ml in aCSF and incubated at room temperature with 100 μM of arginine linked to a fluorescent amido methyl-coumarin (AMC) substrate (Sigma Chemical Co), or to […] (Enzyme Systems Products; Livermore Cailf.) in the presence of differing concentrations of the serine protease inhibitor AEBSF (4-(2-Aminoethyl)benzenesulfonyl fluoride) (Sigma Chemical Co). Fluorescence was measured in a fluorometer (Sequoia-Turner Corp.) at 430 nm with stimulation at 360 nm. Quantification of proteolytic inhibition was performed by normalization of fluorescence in control tubes (i.e. those without added AEBSF) to 0 percent.
The serine protease substrate arginine-AMC (A-AMC) and a substrate made up of the CAM serine protease target sequence (arginine-serine-lysine-arginine) (ASLA-AMC) were both cleaved when incubated with soluble protein fractions (i.e. ultrasupernatants) from the hippocampus. This assay was then used to identify drugs and dosages that prevent extracellular CAM cleavage by endogenous proteases. The serine protease inhibitor AEBSF (4-(2-Aminoethyl)-benzenesulfonyl fluoride) inhibited proteolysis of the CAM sequence (ASLA-AMC) and did so to a much greater degree than it blocked the proteolysis of A-AMC. At 250 and 1000 uM A-AMC cleavage was blocked by 15 and 33 percent, respectively, while ASLA-AMC proteolysis was blocked by 44 and 70 percent. FIG. 3 (p≦0.0001).

Assay [4] has as its system pre-existing seizure proneness (after-discharge duration). The experiment in a line: Restimulation of previously kindled rats (pre-existing seizure proneness), after-discharge duration. The class given is in vivo, rat. Conditions: AEBSF (50 mgs/ml) injection prior to stimulations. An excerpt:
The control group rats from III, above, were restimulated, with four of the rats of this group receiving a saline injection prior to stimulation and the remaining four rats receiving AEBSF (50 mgs/ml) injection prior to stimulations. […] The AD duration average of the control group was 207±103% of their original average, while the AD duration of the AEBSF injected rats was 26±77% of their original average.

Assay [5] has as its system LTP in hippocampal slices (CA1 field EPSPs). In words: Long-term potentiation in hippocampal slices (theta burst stimulation, field EPSPs). The class given is cell-based, rat. On the procedure: Brains from male Sprague-Dawley rats (190-225 g) were rapidly removed and placed into ice cold aCSF. Hippocampi were then cut transversely into 400-μm slices and transferred to a recording chamber perfused with aCSF (35° C.), where they were exposed to a humidified gas mixture of 95% oxygen and 5% carbon dioxide. After an hour recovery period, field recordings were made with a glass recording electrode containing 2 M NaCl positioned in the stratum radiatum of CAlb. NAC (Eclectex Enterprises; Irvine Cailf.) was used to record field EPSPs elicited by delivering single stimulation pulses (0.1 ms, 1-15 μA) to one of two bipolar electrodes positioned in Schaffer-commissural projections in CAla and CAlc. Each projection was stimulated every 20 sec with 10 sec interval between each electrode. After establishing a stable baseline (10-20 min), LTP was induced using a theta burst stimulation (TBS) paradigm [J. Larson et al., Brain Res. 368, 347-350 (1986)] in one pathway. After 30 minutes the perfusion media was switched to one containing 250 μM AEBSF. Forty-five minutes later TBS was applied to the non-potentiated pathway. The AEBSF/aCSF mixture was perfused for an additional 10 minutes, after which regular aCSF was added. In another set of slices TBS stimulation was applied during aCSF perfusion, and five minutes after LTP induction 250 μM AEBSF was infused for the remainder of the experiment. Potentiation for all groups was tabulated as the percent increase above initial baseline slopes.
The magnitude of this effect varied considerably across slices but within slice differences between potentiation elicited before (control) vs. after (experimental) infusion of the drug could not be detected. However, the development of LTP in the minutes following induction was clearly different as is evident in FIG. 5A. […] Mean percent potentiation at this time point was 103±5% for experimental and 134±3% for control pathways (n=6, p=0.005).

Assay [6] concerns seizure-proneness (after-discharge duration). The experiment in a line: Kindling by repeated electrical stimulation of hippocampus, after-discharge duration. The class given is in vivo, rat. Conditions: 50 mgs/kg injected once prior to first stimulation; tested 10 days later; control rats ~400%. On the procedure: Rats were divided into two groups: Group I rats were injected with 50 mgs/kg AEBSF and Group II (control) rats were injected with saline. The rats of both groups were then stimulated by direct electrical impulses to the dentate gyrus region of the hippocampus (40 times/5 mins apart)(a paradigm known to promote “kindling”, which can be thought of as an increase in seizure-proneness). The after-discharge duration (AD-duration) was then measured in each group. After a 10 day waiting period, the rats were again stimulated (5 times/20 mins apart)(no drugs were administered). The AD-duration was again measured.

Assay [7] concerns the target T1, tissue plasminogen activator (tPA) (Homo sapiens, UniProt P00750).
T1 construct: purchased Sigma
The experiment in a line: Incubation of synthetic substrates with tPA. The class given is biochemical. On the procedure:
1.5 μg/ml of tissue plasminogen activator (tPA, two chain, Sigma) was incubated at 23 ° C. with 40 μM ASLA- and A-AMC substrates (with or without the inhibitor AEBSF) in a final volume of 1.3 mls aCSF. After one hour of incubation the samples were put in the fluorometer and quantification of proteolytic activity normalized the readings from the A-AMC substrate to 100 (arbitrary units).

For assay [8], the system named is CAM75 (75 kDa cell adhesion molecule fragment) generation by serine protease. In words: Incubation of hippocampal homogenates, CAM75 fragment by immunoblot. The class given is biochemical, rat. The settings on record: membranes incubated for one hour with 500 μM inhibitor; controls 45±8%; n=3-5, p=0.03. On the procedure: Hippocampi were rapidly extracted from adult male Sprague-Dawley rats and submerged in ice-cold buffer (10 mM Tris-base, 100 mM NaCl; pH 7.4) homogenized on ice for 1 min in 5 mls of the same buffer and then centrifuged for 3 min. at 1000 g (4° C.). The pellet was discarded and the resulting supernatant was immediately incubated at 37° C. with or without EDTA, EGTA, or AEBSF. After incubation, samples were ultracentrifuged (as above) and processed for immunoblotting. Quantification of immunoblots was performed by densitometry with normalization of the immunoreactivity levels at 0 minutes to 100 percent (n=4 or 5; mean±S.E.M. for all time points).
Similar results are obtained with brain homogenates, where a 65 kDa fragment and CAM75 are produced upon incubation in the presence of EDTA or EGTA (see FIG. 1). As noted, fragments similar in size to CAM75 are generated by cleavage of any of several NCAM relatives by serine-type proteases. That CAM75 also arises from an enzyme of this type was confirmed with the selective inhibitor 4-(2-Aminoethyl)-benzenesulfonyl fluoride (AEBSF); a 12±8% increase in the fragment occurred in membranes incubated for one hour with 500 μM of the inhibitor while a 45±8% increase was obtained in controls (n=3-5; p=0.03).
In general terms: In western blotting, separated proteins are transferred to a membrane and probed.

T1 sequence (P00750 311-562 limits assumed, species assumed): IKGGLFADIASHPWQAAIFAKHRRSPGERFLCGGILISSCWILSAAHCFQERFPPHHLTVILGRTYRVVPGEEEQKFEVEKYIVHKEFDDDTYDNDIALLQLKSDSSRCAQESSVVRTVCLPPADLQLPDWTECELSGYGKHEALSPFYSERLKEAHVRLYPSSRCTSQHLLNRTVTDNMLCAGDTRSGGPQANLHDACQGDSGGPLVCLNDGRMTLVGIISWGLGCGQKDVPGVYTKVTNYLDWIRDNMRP
T1 sequence (P00750 36-310 partner limits assumed, species assumed): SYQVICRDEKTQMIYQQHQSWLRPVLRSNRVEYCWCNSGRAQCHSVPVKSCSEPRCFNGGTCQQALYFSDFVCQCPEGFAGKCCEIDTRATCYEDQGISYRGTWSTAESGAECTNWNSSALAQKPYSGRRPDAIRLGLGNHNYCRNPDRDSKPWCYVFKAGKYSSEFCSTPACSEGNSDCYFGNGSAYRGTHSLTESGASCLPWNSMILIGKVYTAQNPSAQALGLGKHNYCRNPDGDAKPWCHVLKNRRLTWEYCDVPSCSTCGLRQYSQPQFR

In the case of `CN[C@H](CC(=O)O)C(=O)O` [NMDA], the “concentration of CAM75 in soluble fractions versus control tissue” value in assay [1] (30 seconds after a 30 second infusion of NMDA, n=12, p=0.0003) is reported as “approximately twice”. Also, the “amount of CAM75 greater than in slices exposed to NMDA and an antagonistic drug” value in assay [1] (homogenates after 30 second infusion of NMDA, mean±sd, n=9, p<0.001) is recorded as 77±41%.
For the molecule `CNC1(c2ccccc2Cl)CCCCC1=O` (centres unmarked) [ketamine], the “effect on kainate-induced CAM75 increase” value in assay [2] (60 mg/kg plus 30 mg/kg one hour later with 10 mg/kg kainate, n=7, p=0.03) is recorded as “substantially reduced this effect”.
In the case of `C=C(C)[C@H]1CN[C@H](C(=O)O)[C@H]1CC(=O)O` [kainic acid], in assay [2] (single injection 10 mg/kg, about 45 minutes of periodic seizures, saline = 100 percent, n=11, p=0.0002), the “CAM75 increase in the hippocampus” value turned out to be 598±85%. Further, in assay [2] (ultrasupernatant fractions from kainate injected rats, n=4, p=0.023), the “increase of 80 kDa polypeptide detected by antibodies against Ng-CAM” value amounted to 603±140%.
Take `NCCc1ccc(S(=O)(=O)F)cc1` [AEBSF, 4-(2-Aminoethyl)-benzenesulfonyl fluoride]: the A-AMC cleavage blocked in assay [3] (250 uM AEBSF) came to 15%; in assay [3] (1000 uM AEBSF), 33%. Also, the values for the ASLA-AMC proteolysis blocked in assay [3] (250 uM AEBSF) and in assay [3] (1000 uM AEBSF) were 44% and 70%, respectively. Moreover, the “rats with no after discharges (no seizure-like activity)” value in assay [4] (four rats) was “Two out of the four”. Besides, the “AD duration as percent of original average” value in assay [4] (tested 10 days after, saline group 207±103%) turned out to be 26±77%. Also, the Mean percent potentiation in assay [5] (250 μM for 45 min before TBS, about one hour post-induction, control pathways 134±3%, n=6, p=0.005) was 103±5%. Moreover, in assay [5] (250 μM infused five or thirty minutes after induction), the “effect on already established LTP (potentiation over the subsequent hour)” value was “no effects on potentiation”. In addition, in assay [5] (250 μM infused for forty-five minutes, before TBS), the “effect on slope, amplitude, or waveform of monosynaptic field EPSPs” value is “no significant effect”. In addition, the “increase in AD-duration during the second testing period” value in assay [6] is on record as “no increase in AD-duration”. Further, the “proteolytic activity of tPA blocked” value in assay [7] is on record as “potently blocked”. For the same molecule, in assay [8], the “increase in the CAM75 fragment” value is reported as 12±8%.

Values taken from patent US20030144212A1, “USE OF SERINE PROTEASE INHIBITORS TO INHIBIT PATHOPHYSIOLOGY AND NEUROPATHOLOGY IN A HOST” (priority 2000, published 2003).
